The results in this text go back to ChEMBL document CHEMBL1275495, “Clinical isolates of Aspergillus species remain fully susceptible to voriconazole in the post-voriconazole era” (2008).

≈ marks a conversion by molar mass, not a printed value.

Common to all, as to format: functional
In one assay the test system is Aspergillus flavus. The assay can be described thus: Antifungal activity against Aspergillus flavus clinical isolate obtained from invasive aspergillosis patient after 48 hrs by CLSI method.
The subject of assay [1] is Aspergillus sp. Description: Antifungal activity against Aspergillus sp. selected after drug exposure after 48 hrs by CLSI method.
In another assay the test system is Aspergillus fumigatus. The assay can be described thus: Antifungal activity against Aspergillus fumigatus clinical isolate obtained from invasive aspergillosis patient after 48 hrs by CLSI method.
In assay [2] the test system is Aspergillus sp. Description: Antifungal activity against Aspergillus sp. clinical isolate obtained from invasive aspergillosis patient after 48 hrs by CLSI method.
Assay [3] relates to Aspergillus sp. The assay can be described thus: Antifungal activity against Aspergillus sp. clinical isolate obtained from invasive aspergillosis patient selected after drug exposure after 48 hrs by CLSI method.
Another assay has as its system Aspergillus niger. The assay can be described thus: Antifungal activity against Aspergillus niger clinical isolate obtained from invasive aspergillosis patient after 48 hrs by CLSI method.
The next assay has as its system Aspergillus terreus. Description: Antifungal activity against Aspergillus terreus clinical isolate obtained from invasive aspergillosis patient after 48 hrs by CLSI method.
A further assay concerns Aspergillus. Description: Antifungal activity against Aspergillus species after 48 hrs by CLSI method.

A word on the MIC: it is the lowest concentration found to suppress growth. Read a high MIC as a need for much substance. For orientation: MIC50 means the lowest concentration that inhibits either 50% of growth or 50% of the strains tested, depending on the study. As a reminder, the MIC90 is the lowest concentration that inhibits either 90% of growth or 90% of the strains tested, depending on the study. A high value points to lower susceptibility.

Regarding `C[C@@H](c1ncncc1F)[C@](O)(Cn1cncn1)c1ccc(F)cc1F` [VORICONAZOLE], the Activity came to 0.76 µg/mL in the assay with Aspergillus flavus, 0.46 µg/mL with Aspergillus fumigatus, 0.76 µg/mL with Aspergillus niger and 0.76 µg/mL with Aspergillus terreus. The MIC against Aspergillus sp. [1] worked out at 0.4 µg/mL (≈ 1.15 µM); against Aspergillus sp. [2], 0.57 µg/mL (≈ 1.63 µM); against Aspergillus sp. [3], 0.61 µg/mL (≈ 1.75 µM); with Aspergillus, 0.39 µg/mL (≈ 1.12 µM). The MIC50 in the assay on Aspergillus sp. [1] was 0.25 µg/mL (≈ 0.716 µM); with Aspergillus sp. [2], 0.5 µg/mL (≈ 1.43 µM); with Aspergillus sp. [3], 0.5 µg/mL (≈ 1.43 µM); against Aspergillus, 0.25 µg/mL (≈ 0.716 µM). Further, the MIC90 came out at 0.5 µg/mL (≈ 1.43 µM) against Aspergillus sp. [1], 1 µg/mL (≈ 2.86 µM) against Aspergillus sp. [2], 1 µg/mL (≈ 2.86 µM) in the assay on Aspergillus sp. [3] and 0.5 µg/mL (≈ 1.43 µM) against Aspergillus.
